Experimental data as given in ChEMBL document CHEMBL1148985, “27-norlanostane glycosides from the bulbs of Muscari paradoxum” (J Nat Prod, 2004).
Activity calls are given as the source filed them. The rule behind the calls is not given here.

Tests used:
HSC-2 [1] = test: Cytotoxicity against human HSC2 cells assessed as cell viability after 24 hrs; format: functional, cell-based; details: HSC-2, 24 h
HSC-2 [2] = test: Cytotoxicity against human HSC2 cells assessed as cell viability up to 100 uM after 24 hrs; format: functional, cell-based

Compound	IC50 (HSC-2 [1]) [µM]	Activity (HSC-2 [2])
CCC(=O)[C@@H]1C[C@@H](C)[C@]2(CC(=O)[C@@]3(C)C4=C(CC[C@@]32C)[C@@]2(C)CC[C@H](O[C@@H]3O[C@H](CO[C@@H]5OC[C@H](O)[C@H](O)[C@H]5O[C@@H]5O[C@H](CO)[C@@H](O)[C@H](O)[C@H]5O[C@@H]5OC[C@](O)(CO)[C@H]5O)[C@@H](O)[C@H](O)[C@H]3O)[C@](C)(CO)[C@@H]2CC4)O1	6.2	
CCC(=O)[C@@H]1C[C@@H](C)[C@]2(CC[C@@]3(C)C4=C(CC[C@@]32C)[C@@]2(C)CC[C@H](O[C@@H]3O[C@H](CO[C@@H]5OC[C@H](O)[C@H](O)[C@H]5O[C@@H]5O[C@H](CO)[C@@H](O)[C@H](O)[C@H]5O[C@@H]5O[C@@H](C)[C@H](O)[C@@H](O)[C@H]5O)[C@@H](O)[C@H](O)[C@H]3O)[C@](C)(CO)[C@@H]2CC4)O1	32	
CCC(=O)[C@@H]1C[C@@H](C)[C@]2(CC[C@@]3(C)C4=C(CC[C@@]32C)[C@@]2(C)CC[C@H](O[C@@H]3O[C@H](CO[C@@H]5OC[C@H](O)[C@H](O)[C@H]5O[C@@H]5O[C@H](CO)[C@@H](O)[C@H](O[C@@H]6OC[C@H](O)[C@H](O)[C@H]6O[C@@H]6OC[C@@H](O)[C@H](O)[C@H]6O)[C@H]5O[C@@H]5O[C@@H](C)[C@H](O)[C@@H](O)[C@H]5O)[C@@H](O)[C@H](O)[C@H]3O)[C@](C)(CO)[C@@H]2CC4)O1	7.3	
CCC(=O)[C@H]1C[C@@H](C)[C@]2(CC(=O)[C@@]3(C)C4=C(CC[C@@]32C)[C@@]2(C)CC[C@H](O[C@@H]3O[C@H](CO[C@@H]5OC[C@H](O)[C@H](O)[C@H]5O[C@@H]5O[C@H](CO)[C@@H](O)[C@H](O)[C@H]5O[C@@H]5O[C@@H](C)[C@H](O)[C@@H](O)[C@H]5O)[C@@H](O)[C@H](O)[C@H]3O)[C@](C)(CO)[C@@H]2CC4)O1		inactive
CCC(=O)[C@@H]1C[C@@H](C)[C@]2(CC(=O)[C@@]3(C)C4=C(CC[C@@]32C)[C@@]2(C)CC[C@H](O[C@@H]3O[C@H](CO[C@@H]5OC[C@H](O)[C@H](O)[C@H]5O[C@@H]5O[C@H](CO)[C@@H](O)[C@H](O[C@@H]6OC[C@H](O)[C@H](O)[C@H]6O[C@@H]6OC[C@@H](O)[C@H](O)[C@H]6O)[C@H]5O[C@@H]5O[C@@H](C)[C@H](O)[C@@H](O)[C@H]5O)[C@@H](O)[C@H](O)[C@H]3O)[C@](C)(CO)[C@@H]2CC4)O1	19	
CCC(=O)[C@H]1C[C@@H](C)[C@]2(CC(=O)[C@@]3(C)C4=C(CC[C@@]32C)[C@@]2(C)CC[C@H](O[C@@H]3O[C@H](CO[C@@H]5OC[C@H](O)[C@H](O)[C@H]5O[C@@H]5O[C@H](CO)[C@@H](O)[C@H](O)[C@H]5O[C@@H]5OC[C@](O)(CO)[C@H]5O)[C@@H](O)[C@H](O)[C@H]3O)[C@](C)(CO)[C@@H]2CC4)O1		inactive
CCC(=O)[C@@H]1C[C@@H](C)[C@]2(CC(=O)[C@@]3(C)C4=C(CC[C@@]32C)[C@@]2(C)CC[C@H](O[C@@H]3O[C@H](CO[C@@H]5OC[C@H](O)[C@H](O)[C@H]5O[C@@H]5O[C@H](CO)[C@@H](O)[C@H](O)[C@H]5O[C@@H]5O[C@@H](C)[C@H](O)[C@@H](O)[C@H]5O)[C@@H](O)[C@H](O)[C@H]3O)[C@](C)(CO)[C@@H]2CC4)O1	63	
CCC(=O)[C@H]1C[C@@H](C)[C@]2(CC(=O)[C@@]3(C)C4=C(CC[C@@]32C)[C@@]2(C)CC[C@H](O[C@@H]3O[C@H](CO[C@@H]5OC[C@H](O)[C@H](O)[C@H]5O[C@@H]5O[C@H](CO)[C@@H](O)[C@H](O[C@@H]6OC[C@H](O)[C@H](O)[C@H]6O[C@@H]6OC[C@@H](O)[C@H](O)[C@H]6O)[C@H]5O[C@@H]5O[C@@H](C)[C@H](O)[C@@H](O)[C@H]5O)[C@@H](O)[C@H](O)[C@H]3O)[C@](C)(CO)[C@@H]2CC4)O1		inactive
